# Laboratory results from patent EP0491813B1, “BIODEGRADABLE CONTROLLED RELEASE MATRICES” (priority 1989, dated 1991).
# Experiment: dermal toxicity test with moistened product (US EPA guidelines), samples secured to skin for 24 hours
# Conditions: rabbit, in vivo, topical or ocular, male rabbits, 24 hours exposure, survivors observed for 14 days, read-out: LD50 DOSAGE
# Method: Dermal toxicity tests using this formulation, a conventional synthetic polymer formulation comprising 10% w/w phorate and pure phorate (10% w/w) were performed on male rabbits by securing samples to the skin of the test animals for a period of 24 hours. At the expiry of this period rabbits were examined for mortality and surviving rabbits observed for 14 days before sacrifice and examination. The LD50 values are shown below in table 3.
compound,measurement,value
"CCOP(=S)(OCC)SCSCC [Technical grade phorate (10% w/w), phorate]",LD50,5.2 mg/kg
